{"source": "patent US20240426776A1", "about": "“RAPID DIFFERENTIATION OF ANTIBIOTIC-SUSCEPTIBLE AND -RESISTANT BACTERIA THROUGH MEDIATED EXTRACELLULAR ELECTRON TRANSFER” (priority 2021, published 2024)", "key": {"[1]": {"tested_on": "Escherichia coli (strains 61 and 77)", "experiment": "READAS electrochemical current response with PMS mediator (ASIn)", "type": "cell-based", "details": "for ASIn (antibiotic susceptibility index), single replicates: ASI2, 15 μM PMS, 0.1 OD600", "method": "(§1) For initial quality control, cyclic voltammetry scan was recorded from 0.5 V to −0.5 V then back to 0.5 V using the potentiostat 13 configuration. The potentiostat controls the working electrode voltage relative to the reference electrode.\n(§2) For antibiotic susceptibility experiments, the working electrode 6 was controlled at 0 VAg/AgCl. The current can also be measured and analyzed for determining resistance/susceptibility of pathogens to drugs (e.g., antibiotics) using other devices such as a multiplexer or any interface instrument that can receive one or more data inputs and forward it to an output for analysis and feedback. In particular, such one or more data inputs can be directed to a processor, signal processor, computer-based system, etc. and thereafter/correspondingly any such interface instrument can receive instructions from, such processing instruments as better detailed in the description for the embodiment of FIG. 14 below. It is also to be noted that any induced currents undergo a decision methodology that can be interpreted by such a configured processor, signal processor, computer-based system, etc. for aiding in the determination of antibiotic susceptibility/resistance, such as, the methodology better detailed in the description of FIG. 6 below.\n(§3) Turning back to the discussion for FIG. 1B but also FIG. 1A, an initial baseline was established in the MH media, PMS, and antibiotic mixture for 50-60 min before inoculating the electrochemical cell with a bacteria cell 2. On placing the bacteria cell 2 (again see FIG. 1A) into the electrochemical cell 10, the bacteria cell 2 undergoes metabolic reactions and generates electrons 4 through metabolic processes, as was generally described above. The electron transfer mediator used herein, e.g., PMS, thereafter, operates as an electron carrier in solution 3, and provides generated electrons 4 to the working electrode 6 (herein was aided by stirring mechanism 21, as shown in FIG. 1B). The working electrode 6 thus accepts the electrons provided by the reduced mediators (PMSr) so as to generate currents and returns the mediator back to its oxidized form ([…]) to keep the monitoring of respiration induced currents if viable.\n(§4) Tests disclosed in the example embodiments herein for the purpose of illustration were conducted with an inoculum of 0.1 OD600. A cell density equating to 0.1 OD600 was determined for each species by serial dilution. Briefly, overnight cultures were adjusted to an OD600 of 0.1 and then serially diluted (10^0 to 10^−11) in a multi-well plate before transferring 10 μL of each dilution to separate TSA plates and grown overnight for 16-18 h. The colony forming units per mL (CFU/mL) were quantified using a drop plate method as known to those skilled in the art. Each measurement was replicated at least four times.\n(§5) For performing example experimental tests disclosed in the embodiments herein for further reduction to practice, an overnight culture of the bacteria utilized was prepared. Such a culture was prepared by transferring, for example, two colonies from an agar streak plate into 8-ml MH broth and cultured overnight in an air incubator (37° C.) rotating at 120 rpm for 16-18 h. A 5-ml aliquot of culture was adjusted to 0.5 OD600 with fresh MH media and then centrifuged at 6000 rpm (4185×g) for 8 min and the supernatant decanted. The pellet was then resuspended in 5-mL of 30° C. (S. aureus experiments) or 37° C. (all others) MH media. After resuspension, 2 mL of the culture was used to verify optical density. Finally, 500 μL of the culture was inoculated to the electrochemical cuvettes by pipette through the cap inoculation port (2.5-ml final volume in the cuvette).\nThe magnitude of the current response was defined as the current magnitude at the inflection point between the exponential growth and the saturated current response."}, "[2]": {"tested_on": "Acinetobacter baumannii (strains 35, 78, 83, and 102)", "experiment": "READAS electrochemical current response with PMS mediator (ASIn)", "type": "cell-based", "details": "for ASIn (antibiotic susceptibility index), single replicates: ASI2, 15 μM PMS, 0.1 OD600", "method": "as §1, §2, §3, §4, §5\nIt is to be noted that a CLSI resistance breakpoint concentration is a defined concentration of a susceptible antibiotic that treats the bacteria. […]"}, "[3]": {"tested_on": "Acinetobacter baumannii (strains 35, 78, 83, and 102)", "experiment": "Microdilution antibiotic susceptibility assay (MIC, CLSI guidelines)", "type": "cell-based", "details": "for MIC: Acinetobacter baumannii, MH media, 16-18 h, 37° C., read-out: estimated minimum inhibitory concentration from this study", "method": "(§6) Testing for S. aureus susceptibility to oxacillin differed with incubation at 30° C. for 18-24 h in MH media supplemented with 2% NaCl.\n(§7) Values listed in Table 2 below include the estimated minimum inhibitory concentration from this study (μg/mL), the determination of(S) sensitive or (R) resistant microbes according to CLSI criteria, and the CLSI guidelines (μg/mL) for the species being tested. Empty cells were not evaluated."}, "[4]": {"tested_on": "Escherichia coli (strains 61 and 77)", "experiment": "Microdilution antibiotic susceptibility assay (MIC, CLSI guidelines)", "type": "cell-based", "details": "for MIC: Escherichia coli, MH media, 16-18 h, 37° C., read-out: estimated minimum inhibitory concentration from this study", "method": "as §6, §7"}, "[5]": {"tested_on": "Staphylococcus aureus (strains 29213 and 43300)", "experiment": "READAS electrochemical current response with PMS mediator (ASIn)", "type": "cell-based", "details": "for ASIn (antibiotic susceptibility index), single replicates: tobramycin 10× breakpoint (160 μg/mL), ASI10, 15 μM PMS, 0.1 OD600", "method": "Each measurement was replicated at least four times.\n(S. aureus experiments) or 37° C. (all others) MH media.\nThe current responses measured follows a sigmoidal curve structure.\nAs a second example method of operation, the S. aureus strains selected from Table 2 were assessed. Initially, a 2×CLSI resistance breakpoint concentrations for two antibiotics oxacillin (12 μg/mL) and tobramycin (32 μg/mL) were used for the example method of operation. The ASI2<0.4 and it was concluded that the concentration of the antibiotics was insufficient to classify the strains as antibiotic-susceptible or -resistant. S. aureus was then treated with 4×, 6×, 8×, 10×, and 20× the breakpoint concentration of oxacillin and was compared to the control as depicted in FIG. 8A. […] S. aureus was also treated with 4× and 10× the breakpoint concentration of tobramycin and was compared to the control depicted in FIG. 8B. […] The efficacy of antibiotic was proportional to the concentration when a high cell density (1.1×10^8 CFU/mL) was used.\nThe ASIn analysis time for classifying the strains as resistant or susceptible for tobramycin treatment was 33-78 min which was 30 min less than needed for detecting oxacillin susceptibility which required 60-96 min."}, "[6]": {"tested_on": "Escherichia coli (strains 61 and 77)", "details": "cited from earlier work"}, "[7]": {"details": "strain 78 (resistant), imipenem 2×CLSI resistance breakpoint"}, "[8]": {"details": "strain 102 (susceptible), imipenem 2×CLSI resistance breakpoint"}}, "note": "Values joined by “and” are separate entries in the source; they are usually repeats but may differ in a detail not shown here. Identical values can stand only once. Like-named read-outs stand apart in the source and are kept apart here."}
{"smiles": "C[C@@H](O)[C@H]1C(=O)N2C(C(=O)O)=C(SCCN=CN)C[C@H]12", "note": "[Imipenem, imipenem]", "values": [{"measurement": "average ASI2 (±SE)", "setting": "[1]; strain 61 (resistant), imipenem 2× (8 μg/mL)", "result": "−0.20±0.45"}, {"measurement": "ASIn (antibiotic susceptibility index), single replicates", "setting": "[1]; strain 61 (resistant), imipenem 2× breakpoint (8 μg/mL)", "result": "0.26 and −1.52 and 0.52 and −0.08"}, {"measurement": "average ASI2 (±SE)", "setting": "[1]; strain 77 (susceptible), imipenem 2× (8 μg/mL)", "result": "0.86±0.11"}, {"measurement": "ASIn (antibiotic susceptibility index), single replicates", "setting": "[1]; strain 77 (susceptible), imipenem 2× breakpoint (8 μg/mL)", "result": "0.98 and 0.97 and 0.96 and 0.54"}, {"measurement": "average ASI2 (average±SE)", "setting": "[2]; [7]", "result": "0.02±0.13"}, {"measurement": "ASIn (antibiotic susceptibility index), single replicates", "setting": "[2]; [7]", "result": "0.04 and −0.5 and 0.24 and 0.19 and 0.16"}, {"measurement": "average ASI2 (average±SE)", "setting": "[2]; [8]", "result": "0.47±0.08"}, {"measurement": "ASIn (antibiotic susceptibility index), single replicates", "setting": "[2]; [8]", "result": "0.37 and 0.36 and 0.67 and 0.31 and 0.65"}, {"measurement": "MIC", "setting": "[3]; strain 78", "result": 32, "unit": "µg/mL"}, {"measurement": "MIC", "setting": "[3]; strain 102", "result": 1, "unit": "µg/mL"}, {"measurement": "sensitive or resistant according to CLSI criteria", "setting": "[3]; strain 78", "result": "R"}, {"measurement": "sensitive or resistant according to CLSI criteria", "setting": "[3]; strain 102", "result": "S"}, {"measurement": "MIC", "setting": "[4]; strain 61", "result": 32, "unit": "µg/mL"}, {"measurement": "MIC", "setting": "[4]; strain 77", "result": 0.5, "unit": "µg/mL"}, {"measurement": "sensitive or resistant according to CLSI criteria", "setting": "[4]; strain 61", "result": "R"}, {"measurement": "sensitive or resistant according to CLSI criteria", "setting": "[4]; strain 77", "result": "S"}]}
{"smiles": "NC[C@H]1O[C@H](O[C@H]2[C@H](O)[C@@H](O[C@H]3O[C@H](CO)[C@@H](O)[C@H](N)[C@H]3O)[C@H](N)C[C@@H]2N)[C@H](N)C[C@@H]1O", "note": "[Tobramycin, tobramycin]", "values": [{"measurement": "average ASI2 (±SE)", "setting": "[1]; strain 61 (resistant), tobramycin 2× (32 μg/mL)", "result": "0.17±0.1"}, {"measurement": "ASIn (antibiotic susceptibility index), single replicates", "setting": "[1]; strain 61 (resistant), tobramycin 2× breakpoint (32 μg/mL)", "result": "0.23 and 0.15 and 0.47 and 0.16 and −0.16"}, {"measurement": "average ASI2 (±SE)", "setting": "[1]; strain 77 (susceptible), tobramycin 2× (32 μg/mL)", "result": "0.62±0.15"}, {"measurement": "ASIn (antibiotic susceptibility index), single replicates", "setting": "[1]; strain 77 (susceptible), tobramycin 2× breakpoint (32 μg/mL)", "result": "0.92 and 0.4 and 0.86 and 0.33"}, {"measurement": "average ASI2 (average±SE)", "setting": "[2]; strain 35 (susceptible), tobramycin 2×CLSI resistance breakpoint", "result": "0.63±0.13"}, {"measurement": "ASIn (antibiotic susceptibility index), single replicates", "setting": "[2]; strain 35 (susceptible), tobramycin 2×CLSI resistance breakpoint (32 μg/mL)", "result": "0.48 and 1 and 0.4 and 0.64"}, {"measurement": "ASIn (antibiotic susceptibility index), single replicates", "setting": "[2]; strain 35 (susceptible), tobramycin 2×CLSI resistance breakpoint (32 μg/mL), listed as tobramycin", "result": 0.5}, {"measurement": "average ASI2 (average±SE)", "setting": "[2]; strain 83 (resistant), tobramycin 2×CLSI resistance breakpoint", "result": "0.08±0.06"}, {"measurement": "ASIn (antibiotic susceptibility index), single replicates", "setting": "[2]; strain 83 (resistant), tobramycin 2×CLSI resistance breakpoint (32 μg/mL)", "result": "−0.06 and −0.08 and 0.17 and 0.09 and 0.26"}, {"measurement": "ASIn (antibiotic susceptibility index), single replicates", "setting": "[2]; strain 83 (resistant), tobramycin 2×CLSI resistance breakpoint (32 μg/mL), listed as tobramycin", "result": 0.3}, {"measurement": "decrease in current compared to the control", "setting": "[2]; susceptible strain (35), tobramycin 2×CLSI resistance breakpoint, 32 μg/mL, FIG. 4A", "result": 50, "unit": "%"}, {"measurement": "MIC", "setting": "[3]; strain 35", "result": 0.5, "unit": "µg/mL"}, {"measurement": "MIC", "setting": "[3]; strain 83", "result": 128, "unit": "µg/mL"}, {"measurement": "sensitive or resistant according to CLSI criteria", "setting": "[3]; strain 35", "result": "S"}, {"measurement": "sensitive or resistant according to CLSI criteria", "setting": "[3]; strain 83", "result": "R"}, {"measurement": "MIC", "setting": "[4]; strain 61", "result": 16, "unit": "µg/mL"}, {"measurement": "MIC", "setting": "[4]; strain 77", "result": 0.5, "unit": "µg/mL"}, {"measurement": "sensitive or resistant according to CLSI criteria", "setting": "[4]; strain 61", "result": "R"}, {"measurement": "sensitive or resistant according to CLSI criteria", "setting": "[4]; strain 77", "result": "S"}, {"measurement": "current response with increasing antibiotic concentration", "setting": "[5]; oxacillin 4×, 6×, 8×, 10×, 20× breakpoint (FIG. 8A), tobramycin 4× and 10× (FIG. 8B), […]10^8 CFU/mL", "result": "decreased the current magnitude to ASIn≥0.4 and increased the response time"}, {"measurement": "ASIn (antibiotic susceptibility index), single replicates", "setting": "[5]; strain 29213 (susceptible)", "result": "0.52 and 0.6 and 0.16 and 0.34"}, {"measurement": "average ASI10 (±SE)", "setting": "[5]; strain 43300 (resistant), tobramycin 10× (160 μg/mL)", "result": "−0.10±0.14"}, {"measurement": "ASIn (antibiotic susceptibility index), single replicates", "setting": "[5]; strain 43300 (resistant)", "result": "0.12 and −0.01 and −0.42"}, {"measurement": "CLSI guidelines (resistance breakpoint) for the species", "setting": "[6]", "result": 16, "unit": "µg/mL"}]}
